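Exposure lasted 48 hours, with cells grown in 96-well plates and compounds tested at five concentrations. At the GI50, growth is halved. At the TGI there is no net growth.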
What was measured:
Experiment in all cases: DTP human tumour cell line panel, 48 h
[1] = system: OVCAR-8 ovarian
[2] = system: IGROV1 ovarian
[3] = system: U251 CNS
[4] = system: SW-620 colon
[5] = system: OVCAR-5 ovarian
[6] = system: UO-31 renal
[7] = system: HL-60(TB) leukemia
[8] = system: NCI-H522 lung
[9] = system: M14 melanoma
[10] = system: ACHN renal

| SMILES | TGI [1] [µM] | TGI [2] [µM] | TGI [3] [µM] | TGI [4] [µM] | TGI [5] [µM] | TGI [6] [µM] | TGI [7] [µM] | TGI [8] [µM] | TGI [9] [µM] | TGI [10] [µM] | GI50 [1] [µM] | GI50 [2] [µM] | GI50 [3] [µM] | GI50 [4] [µM] | GI50 [5] [µM] | GI50 [6] [µM] | GI50 [7] [µM] | GI50 [8] [µM] | GI50 [9] [µM] | GI50 [10] [µM] |
| --- | --- | --- | --- | --- | --- | --- | --- | --- | --- | --- | --- | --- | --- | --- | --- | --- | --- | --- | --- | --- |
| O=c1c(Cl)c(Cl)cnn1CCCl | 10.9 | 3.85 | 12.3 | 3.89 | 34.5 | 10.7 | 5.58 | 1.12 | 11.3 | 2.35 |  |  |  |  |  |  |  |  |  |  |
| Cn1cc(-c2cnn3c(N)c(Br)c(C4CCCNC4)nc23)cn1 (stereo not given) | > 100 | > 100 | > 100 | > 68.6 | > 73 | > 78.3 | 35.1 | > 100 | 16.8 | > 100 | 5.87 | 6.72 | 20.2 | 15.7 | 6.96 | 4.63 | 1.62 | 24.5 | 0.325 | 0.417 |
| COC(=O)c1cc2c3ccccc3n3c2c(n1)-c1[nH]c2ccccc2c(=O)c1C3 | > 100 | > 100 | 52.3 | > 100 | > 100 | > 100 | > 100 | > 100 | > 100 | > 100 | > 100 | 24.6 | 15.2 | > 100 | > 100 | > 100 | > 100 | 66.3 | > 100 | 33.6 |
| CC[C@@H](C)/C=C(C)/C=C/C(=O)c1c(O)c(-c2ccc(O)cc2)cn(O)c1=O | 12 | 11.4 | 11.2 | 14 | 20.8 | 3.68 | 13.5 | 3.74 | 13.2 | 9.55 | 0.341 | 0.421 | 0.374 | 0.55 | 2.71 | 0.266 | 0.27 | 0.399 | 0.284 | 0.33 |
| CCNC(=O)OCc1c(COC(=O)NCC)c(-c2ccc(Cl)c(Cl)c2)n2c1CCC2 | 41.7 | 48.7 | 28.6 | 68.8 | 59.1 | 24.3 | 22.2 | 19.8 | 24.3 | 37.5 |  |  |  |  |  |  |  |  |  |  |
| CCCCCC/C=C\CCCCCCCCCC1=C(CN2CCN(C)CC2)C(=O)C=C(OC)C1=O | 17 | 18.3 | 15 | 3.38 | 28.8 | 9.2 | 2.97 | 3.01 | 7.73 | 13 |  |  |  |  |  |  |  |  |  |  |
| COc1c(-c2ccccc2)nc2ccc(Oc3ccccc3)nn12 | > 100 | > 100 | > 100 | > 100 | > 100 | > 100 | > 57.3 | > 100 | > 100 | > 100 |  |  |  |  |  |  |  |  |  |  |
| COc1ccc(S(=O)(=O)N(CC(=O)O)c2ccccc2)cc1 | > 100 | > 100 | > 100 | > 100 | > 100 | > 100 | > 100 | > 100 | > 100 | > 100 |  |  |  |  |  |  |  |  |  |  |
| CC(=O)[CH-]C(=O)c1ccccc1.CC(=O)[CH-]C(=O)c1ccccc1.CC(=O)[CH-]C(=O)c1ccccc1.[Nd+3].[OH3+] | > 100 | > 100 | > 100 | > 100 | > 100 | > 100 | > 100 | > 100 | > 100 | > 100 | 27.2 | 97.9 | 37 | 55.2 | 93.1 | > 100 | 30.1 | 12.1 | 43.2 | 48.6 |
| O=C1c2ccccc2C2CCC1c1ccccc12 (stereo not given) | > 100 | > 100 | > 100 | > 100 | > 100 | 70.5 | 38 | 70.6 | > 100 | > 100 |  |  |  |  |  |  |  |  |  |  |
| CCCCCCCC/C=C/CCCCCCCC1=NC(C)(C)CN1CCO | 4.74 | 2.9 | 2.97 | 3.37 | 7.98 | 6.85 | 3.81 | 3.58 | 3.21 | 5.79 | 2.29 | 1.51 | 1.62 | 1.73 | 2.73 | 2.18 | 1.74 | 1.81 | 1.74 | 2.28 |
| C#CCN(c1ccc(C(=O)N[C@@H](CCC(=O)N[C@H](CCC(=O)O)C(=O)O)C(=O)O)cc1)C1CCc2cc3nc(CO)[nH]c(=O)c3cc21 (stereo not given in full) | > 100 | > 100 | > 100 | > 100 | > 100 | > 100 | > 100 | > 100 | > 100 | > 100 | 5.81 | > 100 | > 78.4 | > 44.5 | > 100 | 3.74 | > 58.5 | > 100 | 7.97 | 5.64 |
| Cc1cc(Nc2nc(N[C@@H](C)c3ncc(F)cn3)ncc2Cl)n[nH]1 | > 100 | > 100 | > 100 | > 100 | > 100 | > 100 | > 100 | > 100 | > 100 | > 100 | 30.5 | 26.1 | 24.5 | 22.6 | 38.4 | 24.6 | 29.9 | 21.1 | 20.7 | 20.4 |
| C=CCC(N[C@@H](CO)c1ccccc1)c1cn(C(=O)OCC)c2ccccc12 (stereo not given in full) | > 100 | > 100 | 32.4 | > 100 | 66.1 | > 100 | > 100 | 46.8 | 34.4 | 63 | 31.7 | 23.1 | 17.9 | 28.6 | 23.3 | 32.3 | 24.1 | 21.9 | 18.1 | 24.3 |

Reference: PubChem BioAssay (NCI)
